Data: US20230116733A1, “NOVEL INDAZOLE DERIVATIVE AND USE THEREOF” (KOREA RESEARCH INSTITUTE OFCHEMICAL TECHNOLOGY, priority 2019, published 2023)
Entries after “also recorded” stand apart in the source; their conditions may differ. Where a name gives a salt, the structure may show the parent alone. Read-outs that look alike come from different tables or passages of the source.

Tests used:
HepG2 = assay: Assay for anticancer activity, cell viability (Cell Counting Kit-8); format: cell-based; conditions: for Cell viability (% of Con. 10 μM) HepG2: HepG2 cells, 10 μM compound, 3 days
Protocol: (§1) Assay for anticancer activity was conducted as follows. Corresponding cancer cells were seeded at a density of 4,000 cells/well into 96-well plates and stabilized for 24 hours. Thereafter, the cells in each well were treated with 10 μM of the each of the compounds for 3 days. Then, cell viability was assayed using Cell Counting Kit-8 from Dojindo.

A549 = assay: as above; format: cell-based; conditions: A549 cells, 10 μM compound, 3 days
Protocol: as §1

TRIB2 [1] = molecular target: T1, TRIB2 (Homo sapiens, UniProt Q92519); assay: Phosphorylation of TRIB2 protein in liver cancer cells (FIG. 1); format: cell-based; set-up: endogenous in cells; host or cells: HepG2; conditions: liver cancer cell line HepG2, dose-dependent
T1 sequence (Q92519 1-343): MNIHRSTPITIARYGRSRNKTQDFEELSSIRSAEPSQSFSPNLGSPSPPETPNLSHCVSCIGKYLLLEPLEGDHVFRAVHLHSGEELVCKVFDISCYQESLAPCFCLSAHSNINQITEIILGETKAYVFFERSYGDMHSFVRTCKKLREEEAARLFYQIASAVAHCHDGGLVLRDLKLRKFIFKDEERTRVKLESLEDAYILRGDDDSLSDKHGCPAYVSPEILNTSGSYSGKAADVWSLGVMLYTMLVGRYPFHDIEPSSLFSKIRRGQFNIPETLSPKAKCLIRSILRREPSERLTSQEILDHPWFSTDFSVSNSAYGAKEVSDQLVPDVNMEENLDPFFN

YAP [2] = assay: Phosphorylation of YAP protein in liver cancer cells (FIG. 1); format: cell-based
TRIB2 [3] = molecular target: T1, TRIB2; assay: TRIB2 kinase activity assay (Eurofins, 33P-ATP filter binding); format: biochemical; set-up: purchased Eurofins
Protocol: TRIB2 kinase activity assay was conducted in Eurofins. […] Afterward, the reaction was terminated with 0.5% phosphoric acid.

YAP [4] = assay: p-YAP level in ovarian cancer cell line A2780 (FIG. 1); format: cell-based
U937 = assay: Assay for anticancer activity, cell viability (Cell Counting Kit-8); format: cell-based; conditions: U937 cells, 10 μM compound, 3 days
Protocol: as §1

K562 = assay: as above; format: cell-based; conditions: K562 cells, 10 μM compound, 3 days
Protocol: as §1

[5] = human TRIB2, 15 μM gamma-33P-ATP, 120 minutes at room temperature, read-out: TRIB2 Kimase activity assay IC50

SMILES | Cell viability (% of Con. 10 μM) HepG2 (HepG2) | Cell viability (% of Con. 10 μM) A549 (A549) | IC50 (TRIB2 [3]; [5]) | other results
O=C(Nc1ccncc1)c1n[nH]c2ccc(-c3cccnc3F)cc12 [Compound 17, 5-(2-fluoropyridin-3-yl)-N-(pyridin-4-yl)-1H-indazole-3-carboxamide] | 15 % of Con. | 17 % of Con. | 1 to 10 nM | inhibition of the growth of liver cancer cell line HepG2 (in words) (HepG2; HepG2): highly inhibitory; phosphorylation of TRIB2 protein (TRIB2 [1]): decreases the phosphorylation; YAP protein degradation (YAP [2]): promote YAP protein degradation; inhibitory activity against YAP (in words) (YAP [2]): inhibitory activity against YAP; phosphorylation of YAP protein (YAP [2]; liver cancer cell line HepG2, dose-dependent, FIG. 1): decreases the phosphorylation; level of p-YAP (YAP [4]): reduce the level of p-YAP; also recorded: has an inhibitory activity against YAP
Cn1ncc2c(NC(=O)c3n[nH]c4ccc(-c5cccnc5F)cc34)ccnc21 [Compound 65, 5-(2-fluoropyridin-3-yl)-N-(1-methyl-1H-pyrazolo[3,4-b]pyridin-4-yl)-1H-indazole-3-carboxamide] | 28 % of Con. | 24 % of Con. | 10 to 100 nM | 
O=C(NCc1ccncc1)c1n[nH]c2ccc(-c3cccnc3F)cc12 [Compound 51, 5-(2-fluoropyridin-3-yl)-N-(pyridin-4-ylmethyl)-1H-indazole-3-carboxamide] | 37 % of Con. | 44 % of Con. | 10 to 100 nM | 
O=C(Nc1ccc2c(c1)CCNC2)c1n[nH]c2ccc(-c3cccnc3F)cc12 [Compound 64, 5-(2-fluoropyridin-3-yl)-N-(1,2,3,4-tetrahydroisoquinolin-6-yl)-1H-indazole-3-carboxamide] | 7 % of Con. | 8 % of Con. | 1 to 10 nM | 
CCCn1cc(-c2ccc3[nH]nc(C(=O)Nc4ccncc4)c3c2)cn1 [Compound 36, 5-(1-propyl-1H-pyrazol-4-yl)-N-(pyridin-4-yl)-1H-indazole-3-carboxamide] | 15 % of Con. | 28 % of Con. | 1 to 10 nM | 
CC1(C)NCCc2ccc(NC(=O)c3n[nH]c4ccc(-c5cccnc5F)cc34)cc21 [Compound 59, N-(1,1-dimethyl-1,2,3,4-tetrahydroisoquinolin-7-yl)-5-(2-fluoropyridin-3-yl)-1H-indazole-3-carboxamide] | 6 % of Con. | 2 % of Con. | 1 to 10 nM | 
Cn1cc(-c2ccc3[nH]nc(C(=O)Nc4ccncc4)c3c2)cn1 [Compound 29, 5-(1-methyl-1H-pyrazol-4-yl)-N-(pyridin-4-yl)-1H-indazole-3-carboxamide] | 16 % of Con. | 31 % of Con. | 10 to 100 nM | 
CC(C)(C)OC(=O)N1CCC(NC(=O)c2n[nH]c3ccc(-c4cccnc4F)cc23)CC1 [Compound 1, tert-butyl-4-(5-(2-fluoropyridin-3-yl)-1H-indazole-3-carboxamido)piperidine-1-carboxylate] |  |  | 10 to 100 nM | Cell viability (% of Con. 10 μM) U937 (U937): 34 % of Con.; Cell viability (% of Con. 10 μM) K562 (K562): 49 % of Con.
O=C(Nc1ccc2c(c1)CN(C(=O)C(F)(F)F)CC2)c1nn(C2CCCCO2)c2ccc(-c3cccnc3F)cc12 (stereo not drawn) [Compound 53, 5-(2-fluoropyridin-3-yl)-1-(tetrahydro-2H-pyran-2-yl)-N-(2-(2,2,2-trifluoroacetyl)-1,2,3,4-tetrahydroisoquinolin-7-yl)-1H-indazole-3-carboxamide] | 10 % of Con. | 13 % of Con. | 1 to 10 nM | 
O=C(Nc1ccncc1)c1n[nH]c2ccc(-c3cn[nH]c3)cc12 [Compound 26, 5-(1H-pyrazol-4-yl)-N-(pyridin-4-yl)-1H-indazole-3-carboxamide] | 24 % of Con. | 30 % of Con. | 10 to 100 nM | 
O=C(Nc1ccncc1)c1n[nH]c2ccc(-c3ccc(N4CCNCC4)cc3)cc12 [Compound 46, 5-(4-(piperazin-1-yl)phenyl)-N-(pyridin-4-yl)-1H-indazole-3-carboxamide hydrochloride] | 46 % of Con. | 58 % of Con. | 10 to 100 nM | 
O=C(Nc1ccncc1)c1n[nH]c2ccc(-c3ccoc3)cc12 [Compound 34, 5-(furan-3-yl)-N-(pyridin-4-yl)-1H-indazole-3-carboxamide] | 49 % of Con. | 51 % of Con. | 10 to 100 nM | 
O=C(Nc1ccncc1)c1nn(C2CCCCO2)c2ccc(-c3cccnc3F)cc12 (stereo not drawn) [Compound 66, 5-(2-fluoropyridin-3-yl)-N-(pyridin-4-yl)-1-(tetrahydro-2H-pyran-2-yl)-1H-indazole-3-carboxamide] | 11 % of Con. | 55 % of Con. |  | IC50 (TRIB2 [3]): 10 to 100 nM
O=Cc1cc2c(cc1-c1ccc3[nH]nc(C(=O)Nc4ccncc4)c3c1)OCO2 [Compound 52, 5-(6-formylbenzo[d][1,3]dioxol-5-yl)-N-(pyridin-4-yl)-1H-indazole-3-carboxamide] | 32 % of Con. | 39 % of Con. |  | IC50 (TRIB2 [3]): 10 to 100 nM
O=Cc1ccc(-c2ccc3[nH]nc(C(=O)Nc4ccncc4)c3c2)o1 [Compound 47, 5-(5-formylfuran-2-yl)-N-(pyridin-4-yl)-1H-indazole-3-carboxamide] | 32 % of Con. | 55 % of Con. | 10 to 100 nM | 
CC(C)n1cc(-c2ccc3[nH]nc(C(=O)Nc4ccncc4)c3c2)cn1 [Compound 28, 5-(1-isopropyl-1H-pyrazol-4-yl)-N-(pyridin-4-yl)-1H-indazole-3-carboxamide] | 16 % of Con. | 17 % of Con. | 10 to 100 nM | 
O=C(NC1CCNCC1)c1n[nH]c2ccc(-c3cccnc3)cc12 [Compound 4, N-(piperidin-4-yl)-5-(pyridin-3-yl)-1H-indazole-3-carboxamide] |  |  | 10 to 100 nM | Cell viability (% of Con. 10 μM) U937 (U937): 50 % of Con.; Cell viability (% of Con. 10 μM) K562 (K562): 41 % of Con.
CC1(C)Cc2ccc(NC(=O)c3n[nH]c4ccc(-c5cccnc5F)cc34)cc2CN1 [Compound 71, N-(3,3-dimethyl-1,2,3,4-tetrahydroisoquinolin-7-yl)-5-(2-fluoropyridin-3-yl)-1H-indazole-3-carboxamide] | 9 % of Con. | 10 % of Con. | 1 to 10 nM | 
O=C(Nc1ccc2c(c1)CNCC2)c1n[nH]c2ccc(-c3cccnc3F)cc12 [Compound 55, 5-(2-fluoropyridin-3-yl)-N-(1,2,3,4-tetrahydroisoquinolin-7-yl)-1H-indazole-3-carboxamide hydrochloride] | 12 % of Con. | 10 % of Con. | 1 to 10 nM | 
O=C(Nc1ccncc1)c1n[nH]c2ccc(-c3cnn(C4CCNCC4)c3)cc12 [Compound 73, 5-(1-(piperidin-4-yl)-1H-pyrazol-4-yl)-N-(pyridin-4-yl)-1H-indazole-3-carboxamide hydrochloride] | 36 % of Con. | 49 % of Con. |  | IC50 (TRIB2 [3]): 10 to 100 nM
O=C(NC1CCNCC1)c1n[nH]c2ccc(-c3cccnc3F)cc12 [Compound 2, 5-(2-fluoropyridin-3-yl)-N-(piperidin-4-yl)-1H-indazole-3-carboxamide] |  |  | 10 to 100 nM | Cell viability (% of Con. 10 μM) U937 (U937): 12 % of Con.; Cell viability (% of Con. 10 μM) K562 (K562): 16 % of Con.
